According to patent publication US20090156511A1, “Agent for Enhancing Antiseptic Power” (Kao Corporation, priority 2005, published 2009):

Test system: Staphylococcus aureus IF013276, Escherichia coli IF03972, Pseudomonas aeruginosa IF013275
Test: Antibacterial test (inoculated composition held at 30° C., colony counting method)
Type: cell-based
Description: The following bacteria were suspended in a physiological saline such that the number of bacteria or spores was 10^8 CFU/mL. to prepare a bacteria-containing solution. Then, 0.005 mL of the thus obtained bacteria-containing solution was inoculated into 5 mL of the composition to be tested such that the bacteria concentration therein was […]. The thus inoculated composition was held at 30° C. for a predetermined period of time to measure the change in number of bacteria with time by the calculation using a colony counting method. The antibacterial property of the composition was evaluated according to the following four ratings.
Staphylococcus aureus IF013276
Pseudomonas aeruginosa IF013275
⊚: Sufficiently high antibacterial property (number of bacteria was decreased by […] or more)
◯: High antibacterial property (number of bacteria was decreased by […])
Δ: Low antibacterial property (number of bacteria was decreased by 10^2 to 10^1)

| Substance | antibacterial property by itself (0.1% by mass without antiseptic agent, with polyoxyethylene (60) hydrogenated castor oil, Table 2, after 7 days) | antibacterial property by itself (0.1% by mass in water without antiseptic agent, Table 1, after 9 days) |
| --- | --- | --- |
| α,β-2-hexyldecyl galactoside | no antibacterial property | – |
| α,β-n-dodecyl galactoside | – | no antibacterial property |
